Reference: PubChem BioAssay AID467 (The Scripps Research Institute Molecular Screening Center, 2006)
The source made the active and inactive calls. How the calls were made is not given here.

What follows are compounds tested on parental cell line counter screen, S1P1 agonist assay readout (assay: signal in parental cells, counter-screen for S1P1 agonist project (AID 467);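 further: agonist potency measured against forskolin stimulation plus an EC20 level of SEW2871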).
With `CCOC(=O)Cc1csc(NC(=O)c2ccc(Br)s2)n1` the EC50 was 47.9 µM (inactive). `O=c1oc2cc(Br)ccc2n1CSC1=NCCS1` was tested, and the EC50 was > 10 µM (inactive). `Cc1ccc(S(=O)(=O)Nc2ccc3ncccc3c2)cc1` was tested, and the EC50 was > 30 µM (inactive). In the case of `Cc1cc(NC(=O)c2oc3ccccc3c2C)ccc1-n1cnnn1`, the EC50 is reported as > 30 µM (inactive). With `CCOc1ccc(S(=O)(=O)N2CCN(c3ccc(C)cc3C)CC2)cc1` the EC50 was > 95.1 µM (inactive). `Nc1ccc(N2CCCCCC2)cc1` was tested, and the EC50 was 9.89 µM. With `CCc1ccc(-c2nc(-c3ccncc3)no2)cc1` the EC50 was > 95.1 µM (inactive). `O=C(Oc1cccc(C(=O)N2CCOCC2)c1)c1ccc(Br)cc1` was tested, and the EC50 was > 95.1 µM (inactive). With `CN=C(NC#N)SCC(=O)c1ccc(Cl)cc1Cl` the EC50 was > 30 µM (inactive). `CCN(CC)C(=O)Oc1ccc2c(=O)c(-c3ccc(OC)cc3)coc2c1` was tested, and the EC50 was > 95.1 µM (inactive). With `O=C(c1cc(-c2ccc(O)cc2)on1)N1CCc2ccccc2C1` the EC50 was > 30 µM (inactive). With `Cc1cc(/C=c2/sc3nc4ccccc4n3c2=O)c(C)n1-c1ccccn1` the EC50 was > 95.1 µM (inactive). `CCC(=NCCOc1ccc(Cl)cc1)c1c(O)n(C)c(=O)n(C)c1=O` was tested, and the EC50 was 18.9 µM (inactive). In the case of `COC(=O)c1cc(CSc2nnc(-c3ccccc3)c(-c3ccccc3)n2)oc1C`, the EC50 is reported as > 95.1 µM (inactive). `OC(c1cccc(OCc2ccccc2)c1)c1nnc(-c2ccccc2)o1` (stereo not given) was tested, and the EC50 was > 30 µM (inactive). `CCCOC(=O)c1ccc(OCC(O)Cn2c(C)nc3ccccc32)cc1` (stereo not given) was tested, and the EC50 was > 95.1 µM (inactive). In the case of `Cc1nn(-c2nc3ccccc3s2)c(N)c1-c1ccccc1`, the EC50 is reported as > 95.1 µM (inactive). With `COc1ccc(-c2nc(-c3ccc(NC(=O)c4ccncc4)cc3)no2)cc1OC` the EC50 was > 30 µM (inactive). `COc1cc2c(cc1OC)C(C)N(C(=O)c1cc3ccccc3o1)CC2` (stereo not given) was tested, and the EC50 was > 95.1 µM (inactive). In the case of `Cc1ccc(C(C)C)c(OCc2nc(-c3nonc3N)no2)c1`, the EC50 is reported as > 30 µM (inactive). `Cc1ccccc1CS(=O)(=O)c1nnc([C@H](CC(C)C)NC(=O)OC(C)(C)C)o1` showed an EC50 of 2.89 µM. `O=C(CSc1nnc(Cn2nnc3ccccc32)o1)N(Cc1ccc(F)cc1)c1ccccc1` was tested, and the EC50 was 30.6 µM (inactive). With `CCCc1ccc(OCc2nc(-c3ccc(NC(=O)c4ccco4)cc3)no2)cc1` the EC50 was > 95.1 µM (inactive). In the case of `Fc1ccc2[nH]c3c(N4CCSCC4)ncnc3c2c1`, the EC50 is reported as 11 µM (inactive). In the case of `Cc1ccc(N2C(=O)c3cccc4c(N5CCN(C)CC5)ccc(c34)C2=O)c2cccnc12`, the EC50 is reported as > 95.1 µM (inactive). For `Cc1cc(C(=O)CSc2nnc(-c3ccccc3)n2-c2ccccc2)c(C)n1-c1ncn[nH]1`, the EC50 was > 95.1 µM (inactive). In the case of `COc1cccc(-c2nnc3sc(C4CCCCC4)nn23)c1`, the EC50 is reported as 44.2 µM (inactive). `O=C(Nc1cccc(C(F)(F)F)c1)C1CCCN1S(=O)(=O)c1cccc2cccnc12` (stereo not given) was tested, and the EC50 was > 30 µM (inactive). With `COc1ccccc1-c1cc(C(=O)Nc2cc(C)nn2-c2ccccc2)no1` the EC50 was > 95.1 µM (inactive). With `NC(=O)c1ccc(OCC(F)(F)C(F)(F)C(F)(F)C(F)(F)C(F)(F)C(F)F)cc1` the EC50 was > 95.1 µM (inactive). In the case of `CC1=C(/C=C/C(C)=C/C=C/C(C)=C/C(=O)O)C(C)(C)CCC1`, the EC50 is reported as > 95.1 µM (inactive). For `Cc1nn(Cc2ccc(Cl)c(Cl)c2)c(C)c1NC(=O)c1cc(CC(C)C)on1`, the EC50 was 23.8 µM (inactive). `CC1CC(C)(C)Nc2ccc(OC(=O)c3ccco3)cc21` (stereo not given) showed an EC50 of 7.66 µM. With `CC(C)c1ccc(OCc2nc(-c3ccccn3)no2)c(Br)c1` the EC50 was 63 µM (inactive). For `Nc1nonc1C(=O)NCCNCc1cc(Br)ccc1OCc1ccccc1F`, the EC50 was 28.9 µM (inactive). In the case of `Cc1cc(N2CCN(C/C=C/c3ccccc3)CC2)n2ncnc2n1`, the EC50 is reported as > 95.1 µM (inactive). For `Cc1cc(N2CCOCC2)nc(NCc2ccccc2)n1`, the EC50 was 71.3 µM (inactive). For `CC(C)(C)C1CCC2(CC1)C(C#N)=C(SCC(=O)Nc1ccccc1)NC(=O)C2C#N` (stereo not given), the EC50 was 7.15 µM. `COc1ccc(-c2nc3cc(NC(=O)Cc4ccc(OC)c(OC)c4)ccc3o2)cc1` was tested, and the EC50 was > 10 µM (inactive). For `CC1=C(C(=O)OCc2ccc3c(c2)OCO3)C(c2ccccc2)NC(=O)N1` (stereo not given), the EC50 was > 10 µM (inactive). For `Cc1cccc(N2CCN(C(=O)CSCc3c(C)noc3C)CC2)c1C`, the EC50 was > 30 µM (inactive). `CC(=O)c1sc(NC(=O)C2(F)C(F)(F)C(F)(F)C(F)(F)C(F)(F)C2(F)F)nc1C` was tested, and the EC50 was 31.2 µM (inactive). For `Brc1ccc2ncnc(Nc3ccc(N4CCOCC4)cc3)c2c1`, the EC50 was 46.6 µM (inactive). For `Cc1ccc2c(c1)N(CC(=O)Nc1ccc3c(c1)OCCO3)C(=O)CO2`, the EC50 was > 95.1 µM (inactive). For `COc1ccc(/C(O)=C2/C(=O)C(=O)N(CC3CCCO3)C2c2cccc(OC)c2)cc1` (stereo not given), the EC50 was > 95.1 µM (inactive). With `Oc1ccc(C2NCc3ccccc3-n3cccc32)cc1Cl` (stereo not given) the EC50 was > 30 µM (inactive). Compound `COc1ccc(-n2nnnc2S(=O)(=O)CC(=O)N2CCCCC2)cc1` has an EC50 of 2.35 µM. In the case of `c1ccc(CN2CCN(c3ncnc4c3[nH]c3ccccc34)CC2)cc1`, the EC50 is reported as 12.1 µM (inactive). `CCN(CC)c1ccc(-n2c(C)c(C(C)=O)c(C(C)=O)c2C)cc1` was tested, and the EC50 was > 95.1 µM (inactive). `Cc1nnc(SC(=O)N2c3ccccc3Sc3ccccc32)s1` was tested, and the EC50 was 3.42 µM.
